Results: PubChem BioAssay (NCI)
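Where inhibition never reached the appropriate level, the endpoint shown equals the highest concentration tested. Otherwise, values were interpolated linearly from a five-concentration, 48-hour dose response in 96-well plates. GI50 is the concentration that inhibits growth by half. TGI: concentration producing complete growth inhibition.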

Tests used:
Assay in all cases: DTP human tumour cell line panel, 48 h
A498 renal = test system: A498 renal
ACHN renal = test system: ACHN renal
BT-549 breast = test system: BT-549 breast
HCC-2998 colon = test system: HCC-2998 colon
HCT-116 colon = test system: HCT-116 colon
HOP-62 NSCLC = test system: HOP-62 NSCLC
SN12C renal = test system: SN12C renal
U251 CNS = test system: U251 CNS
MOLT-4 leukemia = test system: MOLT-4 leukemia
SR leukemia = test system: SR leukemia

CC1=CC(C)(C)Nc2ccc(CSc3ccccc3)cc21
TGI (A498 renal): 74.4 µM
TGI (ACHN renal): > 100 µM
TGI (BT-549 breast): > 100 µM
TGI (HCC-2998 colon): 45.1 µM
TGI (HCT-116 colon): 91.9 µM
TGI (HOP-62 NSCLC): 80 µM
TGI (SN12C renal): 62.1 µM
TGI (U251 CNS): > 100 µM

O=C1C(Cl)=C(N2CCN(c3ccccn3)CC2)C(=O)c2ncccc21
TGI (A498 renal): 23.8 µM
TGI (ACHN renal): 5.52 µM
TGI (BT-549 breast): 4.63 µM
TGI (HCC-2998 colon): 30.4 µM
TGI (HCT-116 colon): 3.14 µM
TGI (HOP-62 NSCLC): 25.6 µM
TGI (MOLT-4 leukemia): 4.09 µM
TGI (SN12C renal): 7 µM
TGI (SR leukemia): 3.2 µM
TGI (U251 CNS): 15.2 µM

CC(C)(C)NC(=O)C12C3C4C1C1C2C3C41C(=O)NC(C)(C)C (stereo not given)
TGI (A498 renal): > 100 µM
TGI (ACHN renal): > 100 µM
TGI (BT-549 breast): > 100 µM
TGI (HCC-2998 colon): > 100 µM
TGI (HCT-116 colon): > 100 µM
TGI (HOP-62 NSCLC): > 100 µM
TGI (MOLT-4 leukemia): > 100 µM
TGI (SN12C renal): > 100 µM
TGI (SR leukemia): > 100 µM
TGI (U251 CNS): > 100 µM

O=C(O)CCC(NC(=O)c1ccc(CNc2nc3ccccc3nc2C(=O)O)cc1)C(=O)O (stereo not given)
TGI (A498 renal): > 100 µM
TGI (ACHN renal): > 100 µM
TGI (HCT-116 colon): > 100 µM
TGI (HOP-62 NSCLC): > 100 µM
TGI (MOLT-4 leukemia): > 100 µM
TGI (SN12C renal): > 100 µM
TGI (SR leukemia): > 100 µM
TGI (U251 CNS): > 100 µM

COc1ccc(Nc2nc3ccccc3nc2C(=O)O)cc1OC
TGI (A498 renal): 75.1 µM
TGI (ACHN renal): > 100 µM
TGI (BT-549 breast): > 100 µM
TGI (HCC-2998 colon): > 100 µM
TGI (HCT-116 colon): > 100 µM
TGI (HOP-62 NSCLC): > 100 µM
TGI (MOLT-4 leukemia): > 100 µM
TGI (SN12C renal): > 100 µM
TGI (SR leukemia): > 100 µM
TGI (U251 CNS): > 100 µM

C[N+](C)([O-])Cc1cc(-c2ccccc2)ccc1O
TGI (A498 renal): > 100 µM
TGI (ACHN renal): > 100 µM
TGI (BT-549 breast): > 100 µM
TGI (HCC-2998 colon): > 100 µM
TGI (HCT-116 colon): > 100 µM
TGI (HOP-62 NSCLC): > 100 µM
TGI (MOLT-4 leukemia): > 100 µM
TGI (SN12C renal): > 100 µM
TGI (SR leukemia): > 100 µM
TGI (U251 CNS): > 100 µM

O=C(N/N=C(/COc1cccc(Cl)c1)N=Cc1cccnc1)c1ccncc1
TGI (A498 renal): > 100 µM
TGI (ACHN renal): > 100 µM
TGI (BT-549 breast): > 100 µM
TGI (HCC-2998 colon): > 100 µM
TGI (HCT-116 colon): > 100 µM
TGI (HOP-62 NSCLC): > 100 µM
TGI (MOLT-4 leukemia): > 100 µM
TGI (SN12C renal): > 100 µM
TGI (U251 CNS): > 100 µM

Cn1c(-c2ccc(N=NNc3ccc(-c4n[nH]c(=S)n4C)cc3)cc2)n[nH]c1=S
TGI (A498 renal): > 100 µM
TGI (ACHN renal): 3.93 µM
TGI (BT-549 breast): 12.6 µM
TGI (HCT-116 colon): > 100 µM
TGI (HOP-62 NSCLC): 69.4 µM
TGI (MOLT-4 leukemia): > 100 µM
TGI (SN12C renal): > 100 µM
TGI (SR leukemia): > 100 µM
TGI (U251 CNS): 28.9 µM

COc1ccc(/C=C2/CCS(=O)(=O)c3ccc(C)cc3C2=O)cc1OC
TGI (ACHN renal): 27.4 µM
TGI (BT-549 breast): 35.6 µM
TGI (HCC-2998 colon): 19.6 µM
TGI (HCT-116 colon): 21.8 µM
TGI (HOP-62 NSCLC): > 100 µM
TGI (MOLT-4 leukemia): 49.6 µM
TGI (SN12C renal): 73.9 µM
TGI (SR leukemia): 58.1 µM
TGI (U251 CNS): 42 µM

C=CCc1cccc(/C=N\N=C(/N)NO)c1O
TGI (A498 renal): > 51.6 µM
TGI (HCC-2998 colon): 33.1 µM
TGI (HCT-116 colon): > 79.6 µM
TGI (HOP-62 NSCLC): 7.08 µM
TGI (MOLT-4 leukemia): > 26.8 µM
TGI (SN12C renal): 33.5 µM
TGI (U251 CNS): > 88.3 µM

COc1ccc(-c2nc(-c3cnccn3)n(COCCO)n2)cc1
TGI (BT-549 breast): > 100 µM
TGI (HCC-2998 colon): > 100 µM
TGI (HCT-116 colon): > 100 µM
TGI (HOP-62 NSCLC): > 100 µM
TGI (MOLT-4 leukemia): > 100 µM
TGI (SN12C renal): > 100 µM
TGI (SR leukemia): > 100 µM
TGI (U251 CNS): > 100 µM

O=C(O)Cn1c2c(c3c(O)cccc31)C(=O)c1ccccc1-2
GI50 (A498 renal): > 100 µM
TGI (A498 renal): > 100 µM
GI50 (ACHN renal): > 100 µM
TGI (ACHN renal): > 100 µM
GI50 (BT-549 breast): 12.8 µM
TGI (BT-549 breast): > 100 µM
GI50 (HCC-2998 colon): > 100 µM
TGI (HCC-2998 colon): > 100 µM
GI50 (HCT-116 colon): 93.6 µM
TGI (HCT-116 colon): > 100 µM
GI50 (HOP-62 NSCLC): > 100 µM
TGI (HOP-62 NSCLC): > 100 µM
GI50 (MOLT-4 leukemia): > 100 µM
TGI (MOLT-4 leukemia): > 100 µM
GI50 (SN12C renal): > 100 µM
TGI (SN12C renal): > 100 µM
GI50 (U251 CNS): > 100 µM
TGI (U251 CNS): > 100 µM

CCCOC1OC(CS(=O)(=O)O)C(O)C(O)C1O (stereo not given)
TGI (A498 renal): > 100 µM
TGI (BT-549 breast): > 100 µM
TGI (HCC-2998 colon): > 100 µM
TGI (HCT-116 colon): > 100 µM
TGI (HOP-62 NSCLC): > 100 µM
TGI (MOLT-4 leukemia): > 100 µM
TGI (SN12C renal): > 100 µM
TGI (SR leukemia): > 100 µM
TGI (U251 CNS): > 100 µM

COc1cc2c(c(OC(C)=O)c1OC(C)=O)-c1ccc(SC)c(=O)cc1C(NC(C)=O)CC2 (stereo not given)
TGI (A498 renal): 56.7 µM
TGI (ACHN renal): > 100 µM
TGI (HCC-2998 colon): > 100 µM
TGI (HCT-116 colon): 17.5 µM
TGI (HOP-62 NSCLC): > 75.5 µM
TGI (MOLT-4 leukemia): > 100 µM
TGI (SN12C renal): > 100 µM
TGI (SR leukemia): > 100 µM
TGI (U251 CNS): > 32 µM

O=C(/C=C/c1ccc(O)c(O)c1)NCCc1ccc(-c2ccccc2)cc1
TGI (A498 renal): > 100 µM
TGI (BT-549 breast): > 100 µM
TGI (HCC-2998 colon): > 100 µM
TGI (HCT-116 colon): > 100 µM
TGI (HOP-62 NSCLC): > 100 µM
TGI (MOLT-4 leukemia): > 100 µM

CN1C(=O)C23CCCCC2CC1(c1ccccc1)S3 (stereo not given)
TGI (A498 renal): > 100 µM
TGI (ACHN renal): > 100 µM
TGI (BT-549 breast): > 100 µM
TGI (HCT-116 colon): > 100 µM
TGI (HOP-62 NSCLC): > 100 µM
TGI (MOLT-4 leukemia): > 100 µM
TGI (SN12C renal): > 100 µM
TGI (SR leukemia): > 100 µM
TGI (U251 CNS): > 100 µM

NC(N)=NS(=O)(=O)c1ccc(NC(=O)c2ccc3[nH]c4ccccc4c(=O)c3c2)cc1
TGI (ACHN renal): > 100 µM
TGI (BT-549 breast): > 100 µM
TGI (HCC-2998 colon): > 100 µM
TGI (HCT-116 colon): > 100 µM
TGI (HOP-62 NSCLC): > 100 µM
TGI (MOLT-4 leukemia): > 100 µM
TGI (SN12C renal): > 100 µM
TGI (SR leukemia): > 100 µM
TGI (U251 CNS): > 100 µM

NC(=S)NS(=O)(=O)c1ccc(F)cc1F
TGI (A498 renal): > 100 µM
TGI (ACHN renal): > 100 µM
TGI (BT-549 breast): > 100 µM
TGI (HCC-2998 colon): > 100 µM
TGI (HCT-116 colon): > 100 µM
TGI (HOP-62 NSCLC): > 100 µM
TGI (MOLT-4 leukemia): > 100 µM
TGI (SN12C renal): > 100 µM
TGI (U251 CNS): > 100 µM

O=C(Nn1cnn2c(=O)c3ccccc3nc2c1=O)c1ccccc1
TGI (A498 renal): > 100 µM
TGI (ACHN renal): > 100 µM
TGI (BT-549 breast): > 100 µM
TGI (HCC-2998 colon): > 100 µM
TGI (HCT-116 colon): > 100 µM
TGI (HOP-62 NSCLC): > 100 µM
TGI (SN12C renal): > 100 µM
TGI (SR leukemia): > 100 µM
TGI (U251 CNS): > 100 µM

COc1ccccc1NC(=S)Nc1cc(C)ccn1
TGI (A498 renal): > 100 µM
TGI (BT-549 breast): > 100 µM
TGI (HCT-116 colon): > 100 µM
TGI (HOP-62 NSCLC): > 100 µM
TGI (MOLT-4 leukemia): > 100 µM
TGI (SN12C renal): > 100 µM
TGI (SR leukemia): > 100 µM
TGI (U251 CNS): > 100 µM

CN(C)C(=O)C1CCN(Cc2c[nH]c3ccccc23)CC1
TGI (A498 renal): > 100 µM
TGI (ACHN renal): > 100 µM
TGI (BT-549 breast): > 100 µM
TGI (HCT-116 colon): > 100 µM
TGI (HOP-62 NSCLC): > 100 µM
TGI (MOLT-4 leukemia): > 100 µM
TGI (SN12C renal): > 100 µM
TGI (SR leukemia): > 100 µM
TGI (U251 CNS): > 100 µM

COc1ccc2c(c1)C(N)=C(Cc1ccncc1)C2=O
TGI (A498 renal): > 100 µM
TGI (ACHN renal): > 100 µM
TGI (BT-549 breast): > 100 µM
TGI (HCT-116 colon): > 100 µM
TGI (HOP-62 NSCLC): > 100 µM
TGI (MOLT-4 leukemia): > 100 µM
TGI (SN12C renal): > 100 µM
TGI (U251 CNS): > 100 µM

Cn1c2c3c(F)c(F)ccc3nc-2cc2ccccc21
TGI (A498 renal): 2.89 µM
TGI (ACHN renal): 4.68 µM
TGI (BT-549 breast): 20 µM
TGI (HCC-2998 colon): 3.63 µM
TGI (HOP-62 NSCLC): 6.92 µM
TGI (MOLT-4 leukemia): > 100 µM
TGI (SN12C renal): 6.23 µM
TGI (SR leukemia): > 100 µM
TGI (U251 CNS): 12.9 µM
